The test deals with T1, ERα protein (HiBiT-tagged) in ESR1_HiBiT KI MCF7 cells (Homo sapiens, UniProt P03372).
T1 sequence (P03372 1-595): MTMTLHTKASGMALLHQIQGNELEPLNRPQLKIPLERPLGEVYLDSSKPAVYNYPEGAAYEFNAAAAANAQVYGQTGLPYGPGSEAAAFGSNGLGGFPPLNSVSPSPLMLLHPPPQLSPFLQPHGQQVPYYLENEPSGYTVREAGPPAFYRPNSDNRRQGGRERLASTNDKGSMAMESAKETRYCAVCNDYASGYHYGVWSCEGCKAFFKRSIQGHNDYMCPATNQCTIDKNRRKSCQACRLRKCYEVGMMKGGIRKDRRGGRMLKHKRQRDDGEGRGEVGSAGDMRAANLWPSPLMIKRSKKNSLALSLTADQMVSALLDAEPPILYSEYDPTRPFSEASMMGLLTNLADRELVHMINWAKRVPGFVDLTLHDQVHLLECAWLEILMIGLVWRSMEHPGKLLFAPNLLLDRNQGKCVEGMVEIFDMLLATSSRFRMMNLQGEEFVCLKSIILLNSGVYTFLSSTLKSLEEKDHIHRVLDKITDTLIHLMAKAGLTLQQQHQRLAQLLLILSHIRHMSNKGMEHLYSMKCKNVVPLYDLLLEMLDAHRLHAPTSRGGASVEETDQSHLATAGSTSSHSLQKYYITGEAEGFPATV
Kind of test: Nano Glo HiBiT Lytic Degradation Assay. The class given is cell-based. The conditions noted are these: 6 hours with compound, 14-point dose response 1:3, bell-shape curve fit, half-maximal effect of first Hill model, read-out: MCF7 ESR1 HiBiT - (DC50). The procedure, abridged: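 HiBiT-tagged endogenous ERα remaining in MCF7 knock-in cells was quantified by lytic luminescence after a 6 h treatment. DC50 values derive from a bell-shaped curve, taken at the first Hill component's half-maximal effect.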
(In general: HiBiT is a short tag that completes a luciferase, so light tracks the accessible tagged protein.)

The results in this text go back to patent US20250388565A1, “ESTROGEN RECEPTOR ALPHA DEGRADERS AND METHODS OF USE THEREOF” (Relay Therapeutics, Inc., priority 2022, published 2025).

As to `O=C1CC[C@H](N2Cc3cc(N4CCN(CC5CCN(c6ccc([C@@H]7c8ccc(O)cc8C(F)(F)C[C@@H]7c7cc(F)ccc7F)cc6)CC5)CC4)ccc3C2=O)C(=O)N1` [Compound I-316, (S)-3-(5-(4-((1-(4-((1R,2S)-2-(2,5-difluorophenyl)-4,4-difluoro-6-hydroxy-1,2,3,4-tetrahydronaphthalen-1-yl)phenyl)piperidin-4-yl)methyl)piperazin-1-yl)-1-oxoisoindolin-2-yl)piperidine-2,6-dione], the DC50 was found to be 0.3 nM. For `O=C1CC[C@H](N2Cc3cc(N4CCN(CC5CCN(c6ccc([C@H]7c8ccc(O)cc8C(F)(F)C[C@H]7c7cc(F)ccc7F)cc6)CC5)CC4)ccc3C2=O)C(=O)N1` [Compound I-317, (S)-3-(5-(4-((1-(4-((1S,2R)-2-(2,5-difluorophenyl)-4,4-difluoro-6-hydroxy-1,2,3,4-tetrahydronaphthalen-1-yl)phenyl)piperidin-4-yl)methyl)piperazin-1-yl)-1-oxoisoindolin-2-yl)piperidine-2,6-dione], the DC50 came to 3 nM. Regarding `O=C1CC[C@H](N2Cc3cc(N4CCN(CC5CCN(c6ccc([C@@H]7c8ccc(O)cc8C(F)(F)C[C@@H]7c7ccc(F)cc7F)cc6)CC5)CC4)ccc3C2=O)C(=O)N1` [Compound I-318, (S)-3-(5-(4-((1-(4-((1R,2S)-2-(2,4-difluorophenyl)-4,4-difluoro-6-hydroxy-1,2,3,4-tetrahydronaphthalen-1-yl)phenyl)piperidin-4-yl)methyl)piperazin-1-yl)-1-oxoisoindolin-2-yl)piperidine-2,6-dione], the DC50 amounted to 0.33 nM. Next, `O=C1CC[C@H](N2Cc3cc(N4CCN(CC5CCN(c6ccc([C@H]7c8ccc(O)cc8C(F)(F)C[C@H]7c7ccc(F)cc7F)cc6)CC5)CC4)ccc3C2=O)C(=O)N1` [Compound I-319, (S)-3-(5-(4-((1-(4-((1S,2R)-2-(2,4-difluorophenyl)-4,4-difluoro-6-hydroxy-1,2,3,4-tetrahydronaphthalen-1-yl)phenyl)piperidin-4-yl)methyl)piperazin-1-yl)-1-oxoisoindolin-2-yl)piperidine-2,6-dione]: 108 nM.

As to `Cc1ccccc1[C@H]1CC(F)(F)c2cc(O)ccc2[C@H]1c1ccc(N2CCC(CN3CCN(c4ccc5c(c4)CN([C@H]4CCC(=O)NC4=O)C5=O)CC3)CC2)cc1` [Compound I-322, (S)-3-(5-(4-((1-(4-((1R,2S)-4,4-difluoro-6-hydroxy-2-(o-tolyl)-1,2,3,4-tetrahydronaphthalen-1-yl)phenyl)piperidin-4-yl)methyl)piperazin-1-yl)-1-oxoisoindolin-2-yl)piperidine-2,6-dione], the DC50 turned out to be 0.56 nM. Consider `Cc1ccccc1[C@@H]1CC(F)(F)c2cc(O)ccc2[C@@H]1c1ccc(N2CCC(CN3CCN(c4ccc5c(c4)CN([C@H]4CCC(=O)NC4=O)C5=O)CC3)CC2)cc1` [Compound I-323, (S)-3-(5-(4-((1-(4-((1S,2R)-4,4-difluoro-6-hydroxy-2-(o-tolyl)-1,2,3,4-tetrahydronaphthalen-1-yl)phenyl)piperidin-4-yl)methyl)piperazin-1-yl)-1-oxoisoindolin-2-yl)piperidine-2,6-dione], for which the DC50 stood at 33 nM. On to `Cc1cc(F)ccc1[C@H]1CC(F)(F)c2cc(O)ccc2[C@H]1c1ccc(N2CCC(CN3CCN(c4ccc5c(c4)CN([C@H]4CCC(=O)NC4=O)C5=O)CC3)CC2)cc1` [Compound I-326, (S)-3-(5-(4-((1-(4-((1R,2S)-4,4-difluoro-2-(4-fluoro-2-methylphenyl)-6-hydroxy-1,2,3,4-tetrahydronaphthalen-1-yl)phenyl)piperidin-4-yl)methyl)piperazin-1-yl)-1-oxoisoindolin-2-yl)piperidine-2,6-dione], for which the DC50 amounted to 0.58 nM.

For `Cc1cc(F)ccc1[C@@H]1CC(F)(F)c2cc(O)ccc2[C@@H]1c1ccc(N2CCC(CN3CCN(c4ccc5c(c4)CN([C@H]4CCC(=O)NC4=O)C5=O)CC3)CC2)cc1` [Compound I-327, (S)-3-(5-(4-((1-(4-((1S,2R)-4,4-difluoro-2-(4-fluoro-2-methylphenyl)-6-hydroxy-1,2,3,4-tetrahydronaphthalen-1-yl)phenyl)piperidin-4-yl)methyl)piperazin-1-yl)-1-oxoisoindolin-2-yl)piperidine-2,6-dione], the DC50 was no less than 10000 nM. In the case of `O=C1CC[C@H](N2Cc3cc(N4CCN(CC5CCN(c6ccc([C@H]7c8ccc(O)cc8C(F)(F)C[C@H]7c7ccccc7)cc6F)CC5)CC4)ccc3C2=O)C(=O)N1` [Compound I-328, (S)-3-(5-(4-((1-(4-((1S,2R)-4,4-difluoro-6-hydroxy-2-phenyl-1,2,3,4-tetrahydronaphthalen-1-yl)-2-fluorophenyl)piperidin-4-yl)methyl)piperazin-1-yl)-1-oxoisoindolin-2-yl)piperidine-2,6-dione], the DC50 amounted to 9 nM.

`O=C1CC[C@H](N2Cc3cc(N4CCN(CC5CCN(c6ccc([C@@H]7c8ccc(O)cc8C(F)(F)C[C@@H]7c7ccc(C(F)(F)F)cc7)cc6)CC5)CC4)ccc3C2=O)C(=O)N1` [Compound I-329, (S)-3-(5-(4-((1-(4-((1R,2S)-4,4-difluoro-6-hydroxy-2-(4-(trifluoromethyl)phenyl)-1,2,3,4-tetrahydronaphthalen-1-yl)phenyl)piperidin-4-yl)methyl)piperazin-1-yl)-1-oxoisoindolin-2-yl)piperidine-2,6-dione]: the DC50 was determined as 0.92 nM. For `O=C1CC[C@H](N2Cc3cc(N4CCN(CC5CCN(c6ccc([C@H]7c8ccc(O)cc8C(F)(F)C[C@H]7c7ccc(C(F)(F)F)cc7)cc6)CC5)CC4)ccc3C2=O)C(=O)N1` [Compound I-330, (S)-3-(5-(4-((1-(4-((1S,2R)-4,4-difluoro-6-hydroxy-2-(4-(trifluoromethyl)phenyl)-1,2,3,4-tetrahydronaphthalen-1-yl)phenyl)piperidin-4-yl)methyl)piperazin-1-yl)-1-oxoisoindolin-2-yl)piperidine-2,6-dione], the DC50 is 35 nM. In the case of `C[C@@H]1Cc2cc(O)ccc2[C@H](c2ccc(N3CCC(CN4CCN(c5ccc6c(c5)CN([C@H]5CCC(=O)NC5=O)C6=O)CC4)CC3)cc2)[C@@H]1c1ccccc1` [Compound I-333, (S)-3-(5-(4-((1-(4-((1S,2R,3R)-6-hydroxy-3-methyl-2-phenyl-1,2,3,4-tetrahydronaphthalen-1-yl)phenyl)piperidin-4-yl)methyl)piperazin-1-yl)-1-oxoisoindolin-2-yl)piperidine-2,6-dione], the DC50 was found to be 21 nM. Consider `C[C@H]1Cc2cc(O)ccc2[C@H](c2ccc(N3CCC(CN4CCN(c5ccc6c(c5)CN([C@H]5CCC(=O)NC5=O)C6=O)CC4)CC3)cc2)[C@@H]1c1ccccc1` [Compound I-334, (S)-3-(5-(4-((1-(4-((1S,2R,3S)-6-hydroxy-3-methyl-2-phenyl-1,2,3,4-tetrahydronaphthalen-1-yl)phenyl)piperidin-4-yl)methyl)piperazin-1-yl)-1-oxoisoindolin-2-yl)piperidine-2,6-dione], for which the DC50 amounted to 28 nM.

For the molecule `[2H]c1c([2H])c([2H])c([C@H]2CC(F)(F)c3cc(O)ccc3[C@H]2c2ccc(N3CCC(CN4CCN(c5ccc6c(c5)CN([C@H]5CCC(=O)NC5=O)C6=O)CC4)CC3)cc2)c([2H])c1[2H]` [Compound I-335, (S)-3-(5-(4-((1-(4-((1R,2S)-4,4-difluoro-6-hydroxy-2-(phenyl-d5)-1,2,3,4-tetrahydronaphthalen-1-yl)phenyl)piperidin-4-yl)methyl)piperazin-1-yl)-1-oxoisoindolin-2-yl)piperidine-2,6-dione], the DC50 came out at 0.36 nM.

Consider `[2H]c1c([2H])c([2H])c([C@@H]2CC(F)(F)c3cc(O)ccc3[C@@H]2c2ccc(N3CCC(CN4CCN(c5ccc6c(c5)CN([C@H]5CCC(=O)NC5=O)C6=O)CC4)CC3)cc2)c([2H])c1[2H]` [Compound I-336, (S)-3-(5-(4-((1-(4-((1S,2R)-4,4-difluoro-6-hydroxy-2-(phenyl-d5)-1,2,3,4-tetrahydronaphthalen-1-yl)phenyl)piperidin-4-yl)methyl)piperazin-1-yl)-1-oxoisoindolin-2-yl)piperidine-2,6-dione], for which the DC50 was 15 nM. `O=C1CC[C@H](N2Cc3cc(N4CCN(CC5CCN(c6ccc([C@H]7c8ccc(O)cc8C(F)(F)C[C@H]7c7ccccc7)nc6)CC5)CC4)ccc3C2=O)C(=O)N1` [Compound I-337, (S)-3-(5-(4-((1-(6-((1R,2R)-4,4-difluoro-6-hydroxy-2-phenyl-1,2,3,4-tetrahydronaphthalen-1-yl)pyridin-3-yl)piperidin-4-yl)methyl)piperazin-1-yl)-1-oxoisoindolin-2-yl)piperidine-2,6-dione]: the DC50 is no less than 10000 nM. Next, `O=C1CC[C@H](N2Cc3cc(N4CCN(CC5CCN(c6ccc([C@H]7c8ccc(O)cc8C(F)(F)C[C@H]7c7ccccc7)cn6)CC5)CC4)ccc3C2=O)C(=O)N1` [Compound I-338, (3S)-3-[5-[4-[[1-[5-[(1R,2R)-4,4-difluoro-6-hydroxy-2-phenyl-tetralin-1-yl]-2-pyridyl]-4-piperidyl]methyl]piperazin-1-yl]-1-oxo-isoindolin-2-yl]piperidine-2,6-dione]: 10 nM.

Usually DC50 stands for the concentration at which degradation of the target reaches its halfway point.
